From US20240139171A1, “TREATMENT AND/OR REDUCTION OF OCCURRENCE OF MIGRAINE” (CGRP Diagnostics GmbH, priority 2021, published 2024)
Values belong to the compound of their own block, whether it stands above or below them.

Key:
[1] = test system: naive central trigeminovascular neurons; conditions: in vivo; cited from earlier work
meningeal Aδ-fibers = conditions: in vivo; cited from earlier work
[2] = test system: high-threshold (HT) trigeminovascular neurons; assay: Activation and sensitization of HT trigeminovascular neurons by cortical spreading depression (CSD); type: in vivo, rat; conditions: 30 mg/kg IV; for mean firing rate of HT neurons before CSD: before CSD (4 hours post-treatment)
Text: (§1) Experiments were approved by the Beth Israel Deaconess Medical Center and Harvard Medical School standing committees on animal care, and in accordance with the U. S. National Institutes of Health Guide for the Care and Use of Laboratory Animals. Male and female Sprague-Dawley rats (250-350 g) were anesthetized with urethane (0.9-1.2 g/kg i.p.). They were fitted with an intra-tracheal tube to allow artificial ventilation (0.1 L/min of O2), and an intra-femoral-vein cannula for later infusion of drugs. Rats were placed in a stereotaxic apparatus, and core temperature was kept at 37° C. using a heating blanket. End-tidal CC was continuously monitored and kept within physiological range (3.5-4.5 pCC). Once stabilized, rats were paralyzed with rocuronium bromide (10 mg/ml, 1 ml/hr continuous intravenous infusion) and ventilated. For stimulation of the cranial dura later in the experiment, a 5×5-mm opening was carefully carved in the parietal and occipital bones in front and behind the lambda suture, directly above the left transverse sinus. The exposed dura was kept moist using a modified synthetic interstitial fluid (135 mM NaCl, 5 mM KCl, 1 mM MgCh, 5 mM CaCh, 10 mM glucose and 10 mM Hepes, pH 7.2). For single-unit recording in the spinal trigeminal nucleus, a segment of the spinal cord between the obex and C2 was uncovered from overlying tissues, stripped of the dura mater, and kept moist with mineral oil.
(§2) To record neuronal activity, a tungsten microelectrode (impedance 3-4 MO) was lowered repeatedly into the spinal trigeminal nucleus (STN) in search of central trigeminovascular neurons receiving convergent input from the dura and facial skin. Trigeminovascular neurons were first identified based on their responses to electrical stimulation of the dura. […] Dural receptive fields were mapped by indenting the dura (with the 4.19 g VFH monofilament) at points separated by 1 mm mediolaterally and rostrocaudally. Points at which dural indentation produced a response in >50% of the trials were considered inside the neurons receptive field. Cutaneous receptive fields were mapped by applying innocuous and noxious mechanical stimulation to all facial skin areas and the cornea. An area was considered outside the receptive field if no stimulus produced a response in >50% of the trials. Responses to mechanical stimulation of the skin were determined by applying brief (10 s) innocuous and noxious stimuli to the most sensitive portion of the cutaneous receptive field. Innocuous stimuli consisted of slowly passing a soft bristled brush across the cutaneous receptive field (one 5-s brush stroke from caudal to rostral and one 5-s brush stroke from rostral to caudal) and pressure applied with a loose arterial clip. Noxious stimuli consisted of pinch with a strong arterial clip (Palecek et al, 1992, J. Neurophysiol. 67: 1562-1573; Dado et al, 1994, J. Neurophysiol. 71:981-1002; Burstein et al., 1998, J. Neurophysiol. 79:964-982). More intense or prolonged stimuli were not used to avoid inducing prolonged changes in spontaneous neuronal discharge or response properties. Responses to mechanical stimulation of the cornea consisted of gentle and slow brushing strokes with a thin paintbrush (about 10 hair-follicles). Two classes of neurons were thus identified: wide-dynamic-range (WDR) neurons (incrementally responsive to brush, pressure and pinch), and high-threshold (HT) neurons (unresponsive to brush). Real-time waveform discriminator was used to create and store a template for the action potential evoked in the neuron under study by electrical pulses on the dura; spikes of activity matching the template waveform were acquired and analyzed online and offline using Spike 2 software (CED, Cambridge, UK). Induction and recording of cortical spreading depression.
(§3) Cortical spreading depression (CSD) was induced mechanically by inserting a glass micropipette (tip diameter 25 μm) about 1 mm into the visual cortex for 10 sec. […]

[3] = test system: naive wide-dynamic-range (WDR) trigeminovascular neurons in the spinal trigeminal nucleus; assay: Single-unit recording of spontaneous and evoked activity of naive WDR trigeminovascular neurons; type: in vivo, rat; conditions: 30 mg/kg IV
Text: as §1, with “For single-unit recording in the spinal trigeminal nucleus, a segment of the spinal cord between the obex and C2 was uncovered from overlying tissues, stripped of the dura mater, and kept moist with mineral oil.” left out
To record neuronal activity, a tungsten microelectrode (impedance 3-4 MO) was lowered repeatedly into the spinal trigeminal nucleus (STN) in search of central trigeminovascular neurons receiving convergent input from the dura and facial skin. […] Responses to mechanical stimulation of the skin were determined by applying brief (10 s) innocuous and noxious stimuli to the most sensitive portion of the cutaneous receptive field. […] Real-time waveform discriminator was used to create and store a template for the action potential evoked in the neuron under study by electrical pulses on the dura; spikes of activity matching the template waveform were acquired and analyzed online and offline using Spike 2 software (CED, Cambridge, UK). […]

[4] = test system: wide-dynamic-range (WDR) trigeminovascular neurons; assay: Activation of WDR trigeminovascular neurons by cortical spreading depression (CSD); type: in vivo, rat; conditions: male and female rats, 30 mg/kg IV
Text: Experiments were approved by the Beth Israel Deaconess Medical Center and Harvard Medical School standing committees on animal care, and in accordance with the U. S. National Institutes of Health Guide for the Care and Use of Laboratory Animals. Male and female Sprague-Dawley rats (250-350 g) were anesthetized with urethane (0.9-1.2 g/kg i.p.). They were fitted with an intra-tracheal tube to allow artificial ventilation (0.1 L/min of O2), and an intra-femoral-vein cannula for later infusion of drugs. Rats were placed in a stereotaxic apparatus, and core temperature was kept at 37° C. using a heating blanket. End-tidal CC was continuously monitored and kept within physiological range (3.5-4.5 pCC). Once stabilized, rats were paralyzed with rocuronium bromide (10 mg/ml, 1 ml/hr continuous intravenous infusion) and ventilated. […]
To record neuronal activity, a tungsten microelectrode (impedance 3-4 MO) was lowered repeatedly into the spinal trigeminal nucleus (STN) in search of central trigeminovascular neurons receiving convergent input from the dura and facial skin. […] Responses to mechanical stimulation of the skin were determined by applying brief (10 s) innocuous and noxious stimuli to the most sensitive portion of the cutaneous receptive field. […]

[5] = test system: naive high-threshold (HT) trigeminovascular neurons in the spinal trigeminal nucleus; assay: Single-unit recording of spontaneous and evoked activity of naive HT trigeminovascular neurons; type: in vivo, rat; conditions: 30 mg/kg IV
Text: as §1, §2, §3

[6] = female rats, 2 hours after CSD, 6 hours after administration
[7] = male and female rats, 2 hours after CSD, 6 hours after administration
[8] = male rats, 2 hours after CSD, 6 hours after administration

Compound: NCCCC[C@H](NC(=O)[C@@H](Cc1cc(Br)c(O)c(Br)c1)NC(=O)N1CCC(N2Cc3ccccc3NC2=O)CC1)C(=O)N1CCN(c2ccncc2)CC1 [BIBN4096BS]
- effect on naive central trigeminovascular neurons responses to electrical stimulation of the superior sagittal sinus and microiontophoretic L-glutamate [1]: inhibits

- WDR neurons activated by CSD (case-by-case analysis) ([4]; activated/tested neurons): 5/13
Compound: fremanezumab [CGRP-mAb]
- effect on meningeal Aδ-fibers (meningeal Aδ-fibers): inhibits
- HT neurons with expanded dural receptive fields after CSD ([2]; female rats): 0/6
- HT neurons with expanded facial receptive fields after CSD ([2]; female rats): 0/6
- change of HT response to brushing the cornea after CSD ([2]; female rats): remained unchanged
- HT neuronal responses to dural indentation with VFH after CSD [2, 6]: 8.1±6.4 spikes/sec
- mean firing rate of HT neurons after CSD [2, 6]: 5.0±3.4 spikes/sec
- HT neuronal responses to dural indentation with VFH before CSD ([2]; female rats, before CSD): 10.5±1.6 spikes/sec
- mean firing rate of HT neurons before CSD ([2]; female rats): 3.3±1.7 spikes/sec
- difference in proportion of HT neurons activated by CSD, CGRP-mAb vs isotype-conAb ([2]; male and female rats): 86%
- change of HT neuronal responses to brush after CSD [2, 7]: remained unchanged
- change of HT neuronal responses to pinch after CSD [2, 7]: remained unchanged
- change of HT neuronal responses to pressure after CSD [2, 7]: remained unchanged
- HT neurons activated by CSD (case-by-case analysis) ([2]; male and female rats, activated/tested neurons): 2/14
- HT neurons with expanded dural receptive fields after CSD ([2]; male rats): 2/8
- HT neurons with expanded facial receptive fields after CSD ([2]; male rats): 2/8
- HT neuronal responses to dural indentation with VFH after CSD [2, 8]: 1.9±1.5 spikes/sec
- mean firing rate of HT neurons after CSD [2, 8]: 1.9±1.5 spikes/sec
- HT responses to corneal stimulation after CSD ([2]; male rats, after CSD): 9. ±1.8 spikes/sec
- HT neuronal responses to dural indentation with VFH before CSD ([2]; male rats, before CSD): 1.8±0.6 spikes/sec
- HT responses to corneal stimulation before CSD ([2]; male rats, before CSD): 10.8±3.3 spikes/sec
- mean firing rate of HT neurons before CSD ([2]; male rats): 1.2±0.6 spikes/sec
- effect on spontaneous activity of WDR neurons ([3]; female rats): did not reduce the spontaneous activity of HT or WDR neurons
- effect on sensitivity of WDR neurons to mechanical stimulation of the dura ([3]; male and female rats): but not the WDR neurons
- effect on responses of WDR neurons to innocuous (brush, pressure) or noxious (pinch) mechanical stimulation of the skin or the cornea ([3]; male or female rats): did not alter the responses of HT or WDR neurons
- difference in proportion of WDR neurons activated by CSD, CGRP-mAb vs isotype-conAb [4]: 2%
- decrease in firing of HT neurons to mechanical stimulation of the dura ([5]; female rats): 61%
- effect on spontaneous activity of HT neurons ([5]; female rats): did not reduce the spontaneous activity of HT or WDR neurons
- effect on sensitivity of HT neurons to mechanical stimulation of the dura ([5]; male and female rats): reduced the sensitivity to mechanical stimulation of the dura in the HT
- effect on responses of HT neurons to innocuous (brush, pressure) or noxious (pinch) mechanical stimulation of the skin or the cornea ([5]; male or female rats): did not alter the responses of HT or WDR neurons
- decrease in firing of HT neurons to mechanical stimulation of the dura ([5]; male rats): 75%
- effect on spontaneous activity of HT neurons ([5]; male rats): reduced the spontaneous activity of the HT
- decrease in spontaneous neuronal firing of HT neurons ([5]; male rats, within 3-4 hrs): 90%
